Assay results: the NIST ThermoML archive (doi:10.1016/j.jct.2017.01.016)

Test: xn = mol fraction of the nth substance listed
Conditions: 101 kPa, Liquid; for viscosity: Capillary tube (Ostwald / Ubbelohde) method; for speed of sound: Frequency=3 MHz, Linear variable-path acoustic interferometer

Cc1cc(C)cc(C)c1 [1,3,5-trimethylbenzene] + C1COCCO1
Conditions	speed of sound [m/s]	viscosity [mPa·s]
293.15 K, x2 = 0	1360.4	0.7056
293.15 K, x2 = 0.0696	1354.2	0.7332
293.15 K, x2 = 0.1408	1348.2	0.7648
293.15 K, x2 = 0.2098	1342.8	0.7974
293.15 K, x2 = 0.28	1337.8	0.8326
293.15 K, x2 = 0.3558	1333.1	0.8728
293.15 K, x2 = 0.4276	1329.3	0.9131
293.15 K, x2 = 0.5066	1326.5	0.9597
293.15 K, x2 = 0.5801	1325	1.005
293.15 K, x2 = 0.6548	1325.4	1.054
293.15 K, x2 = 0.7227	1327.5	1.099
293.15 K, x2 = 0.7936	1332	1.149
293.15 K, x2 = 0.8663	1340	1.202
293.15 K, x2 = 0.9319	1351	1.252
298.15 K, x2 = 0	1339.8	0.6592
298.15 K, x2 = 0.0696	1333.4	0.6835
298.15 K, x2 = 0.1408	1327.5	0.7112
298.15 K, x2 = 0.2098	1322.1	0.7398
298.15 K, x2 = 0.28	1317.1	0.7712
298.15 K, x2 = 0.3558	1312.5	0.8066
298.15 K, x2 = 0.4276	1308.9	0.8422
298.15 K, x2 = 0.5066	1306	0.8838
298.15 K, x2 = 0.5801	1304.5	0.9244
298.15 K, x2 = 0.6548	1304.7	0.9678
298.15 K, x2 = 0.7227	1306.5	1.009
298.15 K, x2 = 0.7936	1310.8	1.053
298.15 K, x2 = 0.8663	1318.5	1.101
298.15 K, x2 = 0.9319	1329	1.146
303.15 K, x2 = 0	1319.6	0.6188
303.15 K, x2 = 0.0696	1313.2	0.6405
303.15 K, x2 = 0.1408	1307.3	0.6646
303.15 K, x2 = 0.2098	1301.9	0.6896
303.15 K, x2 = 0.28	1297.1	0.7168
303.15 K, x2 = 0.3558	1292.5	0.7483
303.15 K, x2 = 0.4276	1288.9	0.78
303.15 K, x2 = 0.5066	1286	0.8167
303.15 K, x2 = 0.5801	1284.5	0.8532
303.15 K, x2 = 0.6548	1284.6	0.8918
303.15 K, x2 = 0.7227	1286.4	0.9287
303.15 K, x2 = 0.7936	1290.3	0.9688
303.15 K, x2 = 0.8663	1297.6	1.012
303.15 K, x2 = 0.9319	1307.8	1.052
308.15 K, x2 = 0	1300.2	0.5792
308.15 K, x2 = 0.0696	1294	0.5994
308.15 K, x2 = 0.1408	1287.9	0.6212
308.15 K, x2 = 0.2098	1282.6	0.6438
308.15 K, x2 = 0.28	1277.6	0.6685
308.15 K, x2 = 0.3558	1273	0.6966
308.15 K, x2 = 0.4276	1269.2	0.7253
308.15 K, x2 = 0.5066	1266.3	0.7589
308.15 K, x2 = 0.5801	1264.6	0.7918
308.15 K, x2 = 0.6548	1264.7	0.8274
308.15 K, x2 = 0.7227	1266.2	0.8612
308.15 K, x2 = 0.7936	1270	0.8982
308.15 K, x2 = 0.8663	1277	0.9376
308.15 K, x2 = 0.9319	1286.7	0.9752
313.15 K, x2 = 0	1280.4	0.5422
313.15 K, x2 = 0.0696	1274.3	0.5609
313.15 K, x2 = 0.1408	1268.3	0.5813
313.15 K, x2 = 0.2098	1262.9	0.6022
313.15 K, x2 = 0.28	1258	0.6248
313.15 K, x2 = 0.3558	1253.3	0.651
313.15 K, x2 = 0.4276	1249.6	0.6774
313.15 K, x2 = 0.5066	1246.4	0.7084
313.15 K, x2 = 0.5801	1244.7	0.7391
313.15 K, x2 = 0.6548	1244.6	0.7717
313.15 K, x2 = 0.7227	1246.1	0.8032
313.15 K, x2 = 0.7936	1249.9	0.8372
313.15 K, x2 = 0.8663	1256.5	0.874
313.15 K, x2 = 0.9319	1265.7	0.9088
318.15 K, x2 = 0	1263	0.5066
318.15 K, x2 = 0.0696	1256.9	0.5246
318.15 K, x2 = 0.1408	1250.8	0.5436
318.15 K, x2 = 0.2098	1245.3	0.5634
318.15 K, x2 = 0.28	1240.3	0.5846
318.15 K, x2 = 0.3558	1235.4	0.6092
318.15 K, x2 = 0.4276	1231.5	0.6342
318.15 K, x2 = 0.5066	1228.3	0.6632
318.15 K, x2 = 0.5801	1226.4	0.692
318.15 K, x2 = 0.6548	1226	0.7224
318.15 K, x2 = 0.7227	1227.1	0.7515
318.15 K, x2 = 0.7936	1230.5	0.7836
318.15 K, x2 = 0.8663	1236.7	0.8178
318.15 K, x2 = 0.9319	1245.3	0.8501
